The record followed here is ChEMBL document CHEMBL1131694, “New minimal substrate structural requirements in the enzymatic peroxidation of alkenes with soybean lipoxygenase” (Bioorg Med Chem Lett, 1999).

The source made the active and inactive calls. The calls are words filed in the database; no cut-off is given here.

The target of series [1] is T1, Seed linoleate 13S-lipoxygenase-1 (Glycine max) (UniProt P08170).
T1 sequence (whole entry): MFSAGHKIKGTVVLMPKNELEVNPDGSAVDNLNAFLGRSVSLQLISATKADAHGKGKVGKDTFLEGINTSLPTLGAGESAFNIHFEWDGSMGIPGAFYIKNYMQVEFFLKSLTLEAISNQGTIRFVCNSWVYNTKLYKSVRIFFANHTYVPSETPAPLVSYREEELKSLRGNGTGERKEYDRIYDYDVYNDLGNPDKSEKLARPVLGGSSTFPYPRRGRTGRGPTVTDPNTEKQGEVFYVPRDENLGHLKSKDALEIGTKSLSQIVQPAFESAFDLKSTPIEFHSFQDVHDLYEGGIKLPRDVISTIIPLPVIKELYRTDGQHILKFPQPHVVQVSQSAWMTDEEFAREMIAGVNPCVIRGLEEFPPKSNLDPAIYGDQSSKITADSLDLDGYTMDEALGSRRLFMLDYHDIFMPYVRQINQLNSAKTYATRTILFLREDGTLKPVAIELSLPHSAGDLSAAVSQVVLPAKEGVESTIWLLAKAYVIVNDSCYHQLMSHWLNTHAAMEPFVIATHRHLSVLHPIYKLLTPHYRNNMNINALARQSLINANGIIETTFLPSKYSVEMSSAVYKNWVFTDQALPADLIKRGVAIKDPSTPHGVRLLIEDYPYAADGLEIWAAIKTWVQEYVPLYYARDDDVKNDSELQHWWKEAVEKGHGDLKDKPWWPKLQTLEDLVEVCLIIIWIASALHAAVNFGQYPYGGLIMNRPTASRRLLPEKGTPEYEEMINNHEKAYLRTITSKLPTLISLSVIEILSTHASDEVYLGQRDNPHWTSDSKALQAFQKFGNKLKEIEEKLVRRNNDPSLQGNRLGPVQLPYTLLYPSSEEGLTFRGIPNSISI
Nature of the series: Ratio of proximal to distal region oxidation by 1-lipoxygenase isolated from soybean; Ratio of proximal and distal was 25:75.

The target in series [2] is T1, Seed linoleate 13S-lipoxygenase-1 (Glycine max). Put plainly: Ratio of proximal to distal region oxidation by 1-lipoxygenase isolated from soybean; Ratio of proximal and distal was 89:11.
Series [3] has the same target. Nature of the series: Ratio of proximal to distal region oxidation by 1-lipoxygenase isolated from soybean; Ratio of proximal and distal was 10:90.
Series [4] shares this target. Put plainly: Ratio of proximal to distal region oxidation by 1-lipoxygenase isolated from soybean; Ratio of proximal and distal was 87:13.
Series [5] in a line: Partition coefficient (logP). The format is physicochemical. Conditions: octanol/water.
The target in series [6] is T1, Seed linoleate 13S-lipoxygenase-1 (Glycine max). Put plainly: Ratio of proximal to distal region oxidation by 1-lipoxygenase isolated from soybean; Ratio of proximal and distal was 76:24.
For series [7] the target is unchanged. Nature of the series: Ratio of proximal to distal region oxidation by 1-lipoxygenase isolated from soybean; Ratio of proximal and distal was 50:50.
The target is the same in series [8]. Put plainly: Ratio of proximal to distal region oxidation by 1-lipoxygenase isolated from soybean; Ratio of proximal and distal was 1:99.
For series [9] the target is unchanged.
For series [10] the target is unchanged. Put plainly: Ratio of proximal to distal region oxidation by 1-lipoxygenase isolated from soybean; Ratio of proximal and distal was 99:1.
For series [11] the target is unchanged. Nature of the series: Ratio of proximal to distal region oxidation by 1-lipoxygenase isolated from soybean; Ratio of proximal and distal was 95:5.
Series [12] has the same target. Nature of the series: Ratio of proximal to distal region oxidation by 1-lipoxygenase isolated from soybean; Ratio of proximal and distal was 35:65.

On to `CCCCCCCCCC/C=C\C/C=C\CCOC(=O)CCCCC(=O)O`, for which the Regiospecificity entry in [1] was “Ratio of proximal and distal was 25:75”.

For the molecule `[N-]=[N+]=NCC/C=C\C/C=C\CCOC(=O)COCCO`, in [2], the Regiospecificity entry was “Ratio of proximal and distal was 89:11”.

Take `CCCCCCCC/C=C\C/C=C\CCOC(=O)COCCO`: the Regiospecificity entry in series [3] was “Ratio of proximal and distal was 10:90”.

With `CCCCCC/C=C\C/C=C\CCOC(=O)CCCCC(=O)O`, the Regiospecificity entry in series [4] is “Ratio of proximal and distal was 87:13”.

One may read the logP as a log measure of how a compound divides between an organic and an aqueous phase. On to `CCCCCCCC/C=C\C=C\[C@@H](O)CCO`, for which the log partition coefficient (logP) in series [5] (read-out: logP) is 4.41.

Take `CCCCCCC/C=C\C/C=C\CCOC(=O)CCCCC(=O)O`: in [6], the Regiospecificity result is “Ratio of proximal and distal was 76:24”.

For the molecule `[N-]=[N+]=NCC/C=C/C=C/[C@@H](O)CCO`, the log partition coefficient (logP) in series [5] (read-out: logP) came out at 6.1.

As to `CCCCCCCC/C=C\C/C=C\CCOC(=O)CCCCC(=O)O`, the Regiospecificity result in [7] is “Ratio of proximal and distal was 50:50”.

In the case of `CC(C)=CCC/C(C)=C/C/C=C\C/C=C\CCOC(=O)COCCO`, the Regiospecificity result in series [8] is “Ratio of proximal and distal was 1:99”.

Turning to `CC(C)=CCC/C(C)=C/C/C=C\C=C\[C@@H](O)CCO`, in series [5], the log partition coefficient (logP) came to 3.7.

On to `CCCCC/C=C\C/C=C\CCCCCCCC(=O)O`, for which the Regiospecificity entry in series [9] was “Active”.

As to `CC(C)=CCC/C(C)=C/C/C=C\C/C=C\CCOC(=O)CCCCC(=O)O`, the Regiospecificity entry in [8] was “Ratio of proximal and distal was 1:99”.

Turning to `CCCCC/C=C\C/C=C\CCOC(=O)COCCO`, in series [10], the Regiospecificity result is “Ratio of proximal and distal was 99:1”.

With `CCCCC/C=C\C/C=C\CCOC(=O)CCCCC(=O)O`, the Regiospecificity entry in series [11] was “Ratio of proximal and distal was 95:5”.

As for `CCCCCCCCC/C=C\C/C=C\CCOC(=O)CCCCC(=O)O`, the Regiospecificity entry in series [12] was “Ratio of proximal and distal was 35:65”.

Turning to `CCCC/C=C\C=C\[C@@H](O)CCO`, the logP in series [5] (read-out: logP) worked out at 2.82.
